According to ChEMBL document CHEMBL1135051, “N-arylalkylpiperidines as high-affinity sigma-1 and sigma-2 receptor ligands: phenylpropylamines as potential leads for selective sigma-2 agents” (Bioorg Med Chem Lett, 2002):

Tests used:
[1] = biological target: Sigma non-opioid intracellular receptor 1 (Rattus norvegicus, UniProt Q9R0C9); experiment: Binding affinity for sigma-1 receptor by displacing [3H]-(+) pentazocine
Sigma 2 receptor = experiment: Binding affinity for sigma-2 receptor by displacing [3H]DTG in presence of dextrallorphan; parameters: species or system Rattus norvegicus

Sequence of Sigma non-opioid intracellular receptor 1 (Q9R0C9 whole entry): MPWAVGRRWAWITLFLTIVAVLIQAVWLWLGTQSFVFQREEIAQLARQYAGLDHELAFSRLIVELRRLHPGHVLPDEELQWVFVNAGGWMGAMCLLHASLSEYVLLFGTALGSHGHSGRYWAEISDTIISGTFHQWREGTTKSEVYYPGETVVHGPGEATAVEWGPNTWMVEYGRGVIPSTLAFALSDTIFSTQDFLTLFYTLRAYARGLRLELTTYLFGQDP

Ki [1]	Ki (Sigma 2 receptor)	Compound
326 nM	119 nM	c1ccc(CCN2CCN(c3ccccn3)CC2)cc1
82.9 nM	4.91 nM	c1ccc(CCCN2CCN(c3ccccn3)CC2)cc1
13.9 nM	14.2 nM	c1ccc(CCCN2CCc3ccccc3C2)cc1
5.9 nM	57.3 nM	c1ccc(CCN2CCc3ccccc3C2)cc1
5.25 nM	6.61 nM	CC1CCCN(CCCc2ccccc2)C1 (stereo not given)
143 nM	25 nM	c1ccc(CCCN2CCCCC2)cc1
3.35 nM	12.1 nM	CC1CCN(CCCc2ccccc2)CC1

Compound	Ki [1]	Ki (Sigma 2 receptor)
CC1CCCN(CCc2ccccc2)C1 (stereo not given)	4.15 nM	84.4 nM
CC1CCN(CCc2ccccc2)CC1	20.9 nM	33.3 nM
c1ccc(CCN2CCCCC2)cc1 [1-PHENETHYLPIPERIDINE]	88.5 nM	112 nM
